Test [1] concerns the target T1, CIB1 and αIIb interaction (CIB1-GST : F-αIIb peptide) (Homo sapiens, UniProt Q99828).
T1 construct: made in house; host or cells: BL-21 plus RIL cells (E. coli)
T1 sequence (Q99828 1-191): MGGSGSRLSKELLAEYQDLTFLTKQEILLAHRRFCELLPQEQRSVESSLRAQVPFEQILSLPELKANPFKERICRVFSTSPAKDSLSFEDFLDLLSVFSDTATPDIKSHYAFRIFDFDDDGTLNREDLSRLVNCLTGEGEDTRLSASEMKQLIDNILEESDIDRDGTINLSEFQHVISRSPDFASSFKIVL
Put plainly: FP assay, 1536-well qHTS format (primary and confirmatory screen). Type of test: binding. A general note: qHTS replaces the single test concentration by a dilution series.

Test [2] addresses T2, GST-CIB1 : F-scrambled peptide (Homo sapiens, UniProt Q99828).
T2 construct: made in house; host or cells: BL-21 plus RIL cells (E. coli)
T2 sequence (Q99828 1-191): T1 sequence (Q99828 1-191)
Put plainly: FP scrambled-peptide counter screen, 1536-well format. Type of test: binding. To be noted: for IC50: read-out: IC50 [μM] (counterscreen). For orientation: A counterscreen serves to expose hits that act by an unwanted route or on another target.

Where [3] appears, read: Table S3, confirmatory screen, YES/NO call.
[4] abbreviates: Table S3, confirmatory screen, qHTS curve class, a negative sign marks inhibitory curves.
The mark [5] stands for this setting: Table S3, confirmatory screen, negative = inhibition.
[6] abbreviates: Table S3, confirmatory screen, read-out: IC50 [μM] (confirmatory screen).
The mark [7] stands for this setting: qHTS primary screen hits, Table S2, negative = inhibition.
Where [8] appears, read: qHTS primary screen hits, Table S2, negative sign = inhibitory curve, several classes where COUNT > 1.
Setting [9] is: qHTS primary screen hits, Table S2, read-out: IC50.
[10] abbreviates: Table S3, counterscreen, qHTS curve class, a negative sign marks inhibitory curves.
The mark [11] stands for this setting: Table S3, counterscreen, negative = inhibition.
[12] abbreviates: confirmatory screen, qHTS curve class, negative sign = inhibitory curve.
The mark [13] stands for this setting: counterscreen, qHTS curve class, negative sign = inhibitory curve.

Like-named read-outs stand apart in the source and are kept apart here.

What is called IC50 is the concentration at which inhibition is half-maximal. For `O=C(O)C(F)(F)F.O=C(O)c1ccc(-c2ccc3ncnc(N4CCOCC4)c3c2)o1` [NCGC00229619-01], the “Confirm? (confirmatory screen)” value in test [1] (setting [3]) is recorded as “YES”. Moreover, the “Curve Class (confirmatory screen)” value in test [1] (setting [4]) is on record as -1.4. Further, the “Efficacy (%) (confirmatory screen)” value in test [1] (setting [5]) is reported as -29%. In addition, the IC50 in test [1] (setting [6]) turned out to be 10 µM; in test [1] (setting [9]), 4 µM; in test [2] (Table S3, counterscreen) it was 5.6 µM. The “Efficacy (%)” value in test [1] (setting [7]) is recorded as -16%. Besides, the “Curve Class” value in test [1] (setting [8]) is -1.4. Also, in test [2] (setting [10]), the “Curve Class (counterscreen)” value is recorded as -2.4. Also, the “Efficacy (%) (counterscreen)” value in test [2] (setting [11]) is -53%.

Regarding `CN(CC(=O)Nc1ccc(N2CCOCC2)cc1)Cc1c(O)ccc2ccccc12.O=C(O)C(F)(F)F` [NCGC00229682-01], in test [1] (setting [4]), the “Curve Class (confirmatory screen)” value came out at 4. The “Efficacy (%) (confirmatory screen)” value in test [1] (setting [5]) was -47%. In test [1] (setting [7]), the “Efficacy (%)” value is on record as -68%. For the same compound, the “Curve Class” value in test [1] (setting [8]) is given as -2.2. The IC50 stood at 39.8 µM in test [1] (setting [9]) and 70.8 µM in test [2] (Table S3, counterscreen). For the same compound, in test [2] (Table S3, counterscreen, YES/NO call), the “Confirm? (counterscreen)” value is listed as “YES”. Moreover, the “Curve Class (counterscreen)” value in test [2] (setting [10]) is given as -2.2. In addition, the “Efficacy (%) (counterscreen)” value in test [2] (setting [11]) was -57%.

For the compound `O=C(O)C(F)(F)F.O=C1CCCC2=C1C(c1ccn[nH]1)N=C(Nc1nc3ccccc3o1)N2` (stereo not shown) [NCGC00229725-01], the “Curve Class (confirmatory screen)” value in test [1] (setting [4]) is 4. The “Efficacy (%) (confirmatory screen)” value in test [1] (setting [5]) was -29%. In addition, the “Efficacy (%)” value in test [1] (setting [7]) is on record as -32%. Besides, the “Curve Class” value in test [1] (qHTS primary screen hits, Table S2, negative sign = inhibitory curve) is -2.2. In addition, in test [1] (setting [9]), the half-maximal inhibitory concentration (IC50) amounted to 25.1 µM. For the same compound, the “Curve Class (counterscreen)” value in test [2] (setting [10]) was determined as 4. In addition, the “Efficacy (%) (counterscreen)” value in test [2] (setting [11]) is -32%.

In the case of `CCNC(=O)c1ccc(-c2ccc3ncnc(N4CCOCC4)c3c2)o1.O=C(O)C(F)(F)F` [NCGC00238377-01], in test [1] (confirmatory screen), the “Efficacy (%) (confirmatory screen)” value is -45%. Moreover, in test [1] (confirmatory screen, YES/NO), the “Confirm? (confirmatory screen)” value is listed as “YES”. Moreover, the “Curve Class (confirmatory screen)” value in test [1] (setting [12]) is -1.4. Besides, in test [1] (setting [7]), the “Efficacy (%)” value is -23%. Moreover, the “Curve Class” value in test [1] (setting [8]) is -2.4. Further, in test [1] (setting [9]), the IC50 stood at 28.2 µM. In addition, in test [2] (counterscreen), the “Efficacy (%) (counterscreen)” value is listed as -38% and the IC50 was determined as 44.7 µM. Besides, the “Curve Class (counterscreen)” value in test [2] (setting [13]) is -2.2.

With `CC(O)c1ccc(-c2ccc3ncnc(N4CCOCC4)c3c2)o1.O=C(O)C(F)(F)F` (stereo not shown) [NCGC00238381-02], the “CONFIRMATORY SCREEN Efficacy (%)” value in test [1] (confirmatory screen) is -26%. Also, the “CONFIRMATORY SCREEN Curve Class” value in test [1] (confirmatory screen, qHTS curve class) came out at 4. For the same compound, the “Efficacy (%)” value in test [1] (qHTS FP screen hits, Table S2, negative = inhibition) is -19%. For the same compound, in test [1] (qHTS FP screen hits, Table S2, read-out: IC50), the IC50 turned out to be 14.1 µM. In addition, the “COUNTERSCREEN Efficacy (%)” value in test [2] (counterscreen) is -14%. Moreover, in test [2] (counterscreen, qHTS curve class), the “COUNTERSCREEN Curve Class” value was 4.

As to `CCOC(=O)c1[nH]c2c(c1C)C(=S)CC(c1ccco1)C2.O=C(O)C(F)(F)F` (stereo not shown) [NCGC00238571-01], the “Efficacy (%) (confirmatory screen)” value in test [1] (confirmatory screen) is reported as -73%. In addition, the “Confirm? (confirmatory screen)” value in test [1] (confirmatory screen, YES/NO) is listed as “YES”. Moreover, in test [1] (setting [12]), the “Curve Class (confirmatory screen)” value is listed as -1.2. For the same compound, the IC50 in test [1] (confirmatory screen, read-out: IC50 [μM] (confirmatory screen)) came out at 35.5 µM; in test [1] (setting [9]) it was 50.1 µM; in test [2] (counterscreen) it was 7.1 µM. In addition, the “Efficacy (%)” value in test [1] (setting [7]) is recorded as -69%. Further, the “Curve Class” value in test [1] (setting [8]) is -2.2. Moreover, the “Efficacy (%) (counterscreen)” value in test [2] (counterscreen) is listed as -30%. In test [2] (setting [13]), the “Curve Class (counterscreen)” value is recorded as -1.4.

Take `O=C(O)C(F)(F)F.O=C1CCCC2=C1C(c1n[nH]cc1Cl)NC(Nc1nc3ccccc3o1)=N2` (stereo not shown) [NCGC00238624-04]: the “Confirm? (confirmatory screen)” value in test [1] (setting [3]) was “YES”. Moreover, the “Curve Class (confirmatory screen)” value in test [1] (setting [4]) is listed as -1.2. Moreover, in test [1] (setting [5]), the “Efficacy (%) (confirmatory screen)” value was -34%. In addition, the IC50 in test [1] (setting [6]) was determined as 25.1 µM; in test [2] (Table S3, counterscreen) it was 35.5 µM. For the same compound, the “Curve Class (counterscreen)” value in test [2] (setting [10]) is reported as -1.2. The “Efficacy (%) (counterscreen)” value in test [2] (setting [11]) is -54%.

For the compound `Cc1ccc(OCCn2c(CCNC(=O)c3ccsc3)nc3ccccc32)cc1.O=C(O)C(F)(F)F` [NCGC00238707-01], in test [1] (setting [4]), the “Curve Class (confirmatory screen)” value came to 3. In addition, the “Efficacy (%) (confirmatory screen)” value in test [1] (setting [5]) is on record as 35%. In addition, the “Efficacy (%)” value in test [1] (setting [7]) is -22%. Besides, in test [1] (setting [8]), the “Curve Class” value is given as -1.4. Besides, the IC50 in test [1] (setting [9]) worked out at 11.2 µM; in test [2] (Table S3, counterscreen), 50.1 µM. Further, the “Efficacy (%) (counterscreen)” value in test [2] (setting [11]) worked out at 109%.

`CCOC(=O)c1ccc(O)c2ncc(N3CCC(C(=N)N)CC3)cc12.O=C(O)C(F)(F)F` [NCGC00241051-01]: in test [1] (confirmatory screen), the “Efficacy (%) (confirmatory screen)” value is -129%. Further, the “Confirm? (confirmatory screen)” value in test [1] (confirmatory screen, YES/NO) is “YES”. Also, in test [1] (setting [12]), the “Curve Class (confirmatory screen)” value is -1.1. The “Efficacy (%)” value in test [1] (setting [7]) is -93%. Also, in test [1] (setting [8]), the “Curve Class” value is on record as -1.1. Moreover, in test [2] (counterscreen), the “Efficacy (%) (counterscreen)” value was -115% and the IC50 turned out to be 7.1 µM. The “Curve Class (counterscreen)” value in test [2] (setting [13]) is -1.3.

For the origin of these results see PMC11249646, “Small-Molecule Disruptors of the Interaction between Calcium- and Integrin-Binding Protein 1 and Integrin αIIbβ3 as Novel Antiplatelet Agents” (ACS Pharmacology & Translational Science, 2024).
